In this experiment the target is human 11β-HSD1 microsome fraction (Homo sapiens, UniProt P28845). Nature of the experiment: Enzymatic 11Beta-HSD1 test (SPA-based detection). The format is biochemical. The conditions noted are these: [1,2-3H]-cortisone, NADPH, 37° C. for 1 hour. The procedure:
Enzymatic 11Beta-HSD1 Test:
To measure the activity of the compounds, an SPA-based detection method (Solly et al. 2005) was employed. First of all, 20 μl of the human 11β-HSD1 microsome fraction (0.2 μg of protein), prepared in 50 mM HEPES, 0.1% BSA (w/v), were applied to a plate with 384 wells. The test compounds (0.09 μl) were applied to the assay plate in 100% DMSO. The reaction was started by addition of 20 μl of [1,2-^3H]-cortisone (0.1 μCi/[…]) in assay buffer comprising 25 mM HEPES, 100 mM KCl, 5 mM NaCl, 2 mM MgCl2 and 0.25 mM NADPH. The plate was agitated at 37° C. for 1 hour. At the same time, a stop solution comprising 20 mg/ml SPA-PVT beads, 1.6 mg/ml monoclonal cortisol antibody and 0.01 mM SSR110887 (inhibitor from the Biovitrium patent) in 50 mM HEPES, 1 M NaCl and 1 M KCl was stirred at room temperature. To stop the reaction, 25 μl of the stop solution were added to each well. The plate was agitated gently at room temperature for 1 further hour and then centrifuged at 500 gav for 1 min, in order that the SPA beads could settle out. The plate was then read in a Wallac-1450-Microbeta unit with a standard SPA program (counting time 1 min/well). The comparative compound was glycyrrhetinic acid.
Protein and radioactive substrate were dispensed with a Biomek FX unit (Beckman Coulter) for handling liquids. The test compounds were added with a Cybi-Well equipped with a 90 nl pin tool (CyBio).
Lit.: Solly S, Mundt S S, Zokian H J, Juy-Fang Ding G, Hermanowski-Vosatka A, Strulovici B and Zheng W. High-throughput screening of 11β-Hydroxysteroid dehydrogenase type 1 in scintillation proximity format. Assay Drug Dev Technol 2005; 3:377-384.
human 11β-HSD1 microsome fraction, sequence (P28845 whole entry): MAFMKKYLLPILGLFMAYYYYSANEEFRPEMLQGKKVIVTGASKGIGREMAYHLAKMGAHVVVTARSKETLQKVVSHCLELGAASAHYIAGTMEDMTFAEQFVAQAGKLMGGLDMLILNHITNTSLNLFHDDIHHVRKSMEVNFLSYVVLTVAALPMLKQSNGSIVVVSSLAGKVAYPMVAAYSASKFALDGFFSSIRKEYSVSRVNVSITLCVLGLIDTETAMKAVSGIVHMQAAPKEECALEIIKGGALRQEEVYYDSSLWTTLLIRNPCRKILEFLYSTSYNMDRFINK
Usually IC50 stands for the concentration that inhibits the measured activity by half. Low values mean inhibition by little substance, high ones a need for much substance. Compound `CC1(C)OC(N[C@@H](CCO)c2ccccc2F)=NS(=O)(=O)C1Cc1ccc(C2CCNCC2)cc1` (stereo partly drawn) [Example 22, (S)-3-[6,6-Dimethyl-4,4-dioxo-5-(4-piperidin-4-yl-benzyl)-5,6-dihydro-4H-4lambda6-[1,4,3]oxathiazin-2-ylamino]-3-(2-fluorophenyl)-propan-1-ol] gave an IC50 of 7 nM.

Compound `CN(C)CCCc1ccc(CC2C(C)(C)OC(N[C@@H](CCO)c3ccccc3F)=NS2(=O)=O)cc1` (stereo partly drawn) [Example 32, (S)-3-{5-[4-(3-Dimethylamino-propyl)-benzyl]-6,6-dimethyl-4,4-dioxo-5,6-dihydro-4H-4lambda6-[1,4,3]oxathiazin-2-ylamino}-3-(2-fluorophenyl)-propan-1-ol] came in with an IC50 of 32 nM.

With `CC1(C)OC(N[C@@H](CCO)c2cc(Cl)ccc2F)=NS(=O)(=O)C1Cc1ccccc1` (stereo partly drawn) [Example 14, (S)-3-(5-Benzyl-6,6-dimethyl-4,4-dioxo-5,6-dihydro-4H-4lambda6-[1,4,3]oxathiazin-2-ylamino)-3-(5-chloro-2-fluorophenyl)-propan-1-ol], the IC50 stood at 4 nM.

On to `COCCN1CCC(c2ccc(CC3C(C)(C)OC(N[C@@H](C)c4ccccc4F)=NS3(=O)=O)cc2)CC1` (stereo partly drawn) [Example 40, [(S)-1-(2-fluorophenyl)-ethyl]-(5-{4-[1-(2-methoxy-ethyl)-piperidin-4-yl]-benzyl}-6,6-dimethyl-4,4-dioxo-5,6-dihydro-4H-4lambda6-[1,4,3]oxathiazin-2-yl)-amine], for which the IC50 is 25 nM.

Consider `C[C@H](NC1=NS(=O)(=O)C(C)(Cc2ccccc2)C(C)(C)O1)c1ccccc1F` (stereo partly drawn) [Example 5, (5-Benzyl-5,6,6-trimethyl-4,4-dioxo-5,6-dihydro-4H-4lambda6-[1,4,3]oxathiazin-2-yl)-[(S)-1-(2-fluorophenyl)-ethyl]-amine], for which the IC50 came to 5 nM.

In the case of `COC(=O)N1CCC(c2ccc(CC3C(C)(C)OC(N[C@@H](C)c4ccccc4F)=NS3(=O)=O)cn2)CC1` (stereo partly drawn) [Example 44, 5-{2-[(S)-1-(2-fluorophenyl)-ethylamino]-6,6-dimethyl-4,4-dioxo-5,6-dihydro-4H-4lambda6-[1,4,3]oxathiazin-5-ylmethyl}-3′,4′,5′,6′-tetrahydro-2′H-[2,4′]bipyridinyl-1′-carboxylic acid methyl ester], 5 nM corresponded to half-maximal inhibition (IC50).

For `CC1(C)OC(N[C@@H](CCO)c2ccccc2F)=NS(=O)(=O)C1Cc1ccccc1` (stereo partly drawn) [Example 12, (S)-3-(5-Benzyl-6,6-dimethyl-4,4-dioxo-5,6-dihydro-4H-4lambda6-[1,4,3]oxathiazin-2-ylamino)-3-(2-fluorophenyl)-propan-1-ol], the IC50 is 4 nM.

In the case of `CC1(C)OC(N[C@@H](CCO)c2ccccc2F)=NS(=O)(=O)C1Cc1ccc(C2CCN(CC3CC3)CC2)cc1` (stereo partly drawn) [Example 30, (S)-3-{5-[4-(1-Cyclopropylmethyl-piperidin-4-yl)-benzyl]-6,6-dimethyl-4,4-dioxo-5,6-dihydro-4H-4lambda6-[1,4,3]oxathiazin-2-ylamino}-3-(2-fluoro-phenyl)-propan-1-ol], the IC50 is 29 nM.

On to `CC1(C)OC(N[C@@H](CCO)c2ccc(F)cc2F)=NS(=O)(=O)C1Cc1ccccc1` (stereo partly drawn) [Example 18, (S)-3-(5-Benzyl-6,6-dimethyl-4,4-dioxo-5,6-dihydro-4H-4lambda6-[1,4,3]oxathiazin-2-ylamino)-3-(2,4-difluorophenyl)-propan-1-ol], for which the IC50 was 5 nM.

As for `CC1(C)OC(N[C@@H](CCO)c2ccccc2F)=NS(=O)(=O)C1(C)Cc1ccc(-c2ccc(C(F)(F)F)cn2)cc1` (stereo partly drawn) [Example 7, (S)-3-(2-Fluorophenyl)-3-{5,6,6-trimethyl-4,4-dioxo-5-[4-(5-trifluoromethyl-pyridin-2-yl)-benzyl]-5,6-dihydro-4H-4lambda6-[1,4,3]oxathiazin-2-ylamino}-propan-1-ol], the IC50 worked out at 12 nM.

As to `CC1(C)OC(NC23CCC(F)(CC2)CC3)=NS(=O)(=O)C1Cc1ccccc1` (stereo not shown) [Example 20, (5-Benzyl-6,6-dimethyl-4,4-dioxo-5,6-dihydro-4H-4lambda6-[1,4,3]oxathiazin-2-yl)-(4-fluoro-bicyclo[2.2.2]oct-1-yl)-amine], the IC50 stood at 5 nM.

`CC1(C)OC(N[C@@H](CCO)c2ccccc2F)=NS(=O)(=O)C1Cc1ccc(-c2ccc(C(F)(F)F)cn2)cc1` (stereo partly drawn) [Example 8, (S)-3-{6,6-Dimethyl-4,4-dioxo-5-[4-(5-trifluoromethyl-pyridin-2-yl)-benzyl]-5,6-dihydro-4H-4lambda6-[1,4,3]oxathiazin-2-ylamino}-3-(2-fluoro-phenyl)-propan-1-ol] yielded an IC50 of 7 nM.

In the case of `C[C@H](NC1=NS(=O)(=O)C(Cc2ccc(C3CCN(CCO)CC3)cc2)C(C)(C)O1)c1ccccc1F` (stereo partly drawn) [Example 37, 2-[4-(4-{2-[(S)-1-(2-fluorophenyl)-ethylamino]-6,6-dimethyl-4,4-dioxo-5,6-dihydro-4H-4lambda6-[1,4,3]oxathiazin-5-ylmethyl}-phenyl)-piperidin-1-yl]-ethanol], the IC50 came to 37 nM.

As for `C[C@H](NC1=NS(=O)(=O)[C@H](Cc2ccc(N3CCNCC3)cc2)C(C)(C)O1)c1ccccc1F` [Example 45, [(R)-6,6-Dimethyl-4,4-dioxo-5-(4-piperazin-1-yl-benzyl)-5,6-dihydro-4H-4lambda6-[1,4,3]oxathiazin-2-yl]-[(S)-1-(2-fluorophenyl)-ethyl]-amine], the IC50 is 44 nM.

On to `C[C@H](NC1=NS(=O)(=O)C(C)(Cc2ccc(Br)cc2)C(C)(C)O1)c1ccccc1F` (stereo partly drawn) [Example 3, [5-(4-Bromobenzyl)-5,6,6-trimethyl-4,4-dioxo-5,6-dihydro-4H-4lambda6-[1,4,3]oxathiazin-2-yl]-[(S)-1-(2-fluorophenyl)-ethyl]-amine], for which 4 nM corresponded to half-maximal inhibition (IC50).

Regarding `CC1(C)OC(N[C@@H](CCO)c2ccccc2F)=NS(=O)(=O)C1(C)Cc1ccc(-c2ccccn2)cc1` (stereo partly drawn) [Example 6, (S)-3-(2-Fluorophenyl)-3-[5,6,6-trimethyl-4,4-dioxo-5-(4-pyridin-2-yl-benzyl)-5,6-dihydro-4H-4lambda6-[1,4,3]oxathiazin-2-ylamino]-propan-1-ol], inhibition was half-maximal at 6 nM (IC50).

Compound `CC1(C)OC(N[C@@H](CCO)c2ccccc2F)=NS(=O)(=O)[C@H]1Cc1ccc(C2CCN(C3CC3)CC2)cc1` [Example 42, (S)-3-{(S)-5-[4-(1-Cyclopropyl-piperidin-4-yl)-benzyl]-6,6-dimethyl-4,4-dioxo-5,6-dihydro-4H-4lambda6-[1,4,3]oxathiazin-2-ylamino}-3-(2-fluoro-phenyl)-propan-1-ol] gave an IC50 of 5 nM.

`CC1(C)OC(N[C@@H](CCO)c2ccc(Cl)cc2)=NS(=O)(=O)C1Cc1ccccc1` (stereo partly drawn) [Example 15, (S)-3-(5-Benzyl-6,6-dimethyl-4,4-dioxo-5,6-dihydro-4H-4lambda6-[1,4,3]oxathiazin-2-ylamino)-3-(4-chlorophenyl)-propan-1-ol]: the IC50 was determined as 10 nM.

As to `CC1(C)OC(N[C@@H](CCO)c2cccc(Cl)c2)=NS(=O)(=O)C1Cc1ccccc1` (stereo partly drawn) [Example 16, (S)-3-(5-Benzyl-6,6-dimethyl-4,4-dioxo-5,6-dihydro-4H-4lambda6-[1,4,3]oxathiazin-2-ylamino)-3-(3-chlorophenyl)-propan-1-ol], the IC50 was 6 nM.

`CC1(C)OC(N[C@@H](CCO)c2ccccc2F)=NS(=O)(=O)C1Cc1ccc(C2CCN(CCO)CC2)cc1` (stereo partly shown) [Example 27] gave an IC50 of 5 nM.

`CC1(C)OC(N[C@@H](CCO)c2ccccc2Cl)=NS(=O)(=O)C1Cc1ccccc1` (stereo partly drawn) [Example 11, (S)-3-(5-Benzyl-6,6-dimethyl-4,4-dioxo-5,6-dihydro-4H-4lambda6-[1,4,3]oxathiazin-2-ylamino)-3-(2-chlorophenyl)-propan-1-ol] yielded an IC50 of 8 nM.

`CN1CCC(c2ccc(CC3C(C)(C)OC(N[C@@H](CCO)c4ccccc4F)=NS3(=O)=O)cc2)CC1` (stereo partly shown) [Example 25] had an IC50 of 20 nM.

For the compound `CC1(C)OC(N[C@@H](CCO)c2cccc(F)c2Cl)=NS(=O)(=O)C1Cc1ccccc1` (stereo partly drawn) [Example 13, (S)-3-(5-Benzyl-6,6-dimethyl-4,4-dioxo-5,6-dihydro-4H-4lambda6-[1,4,3]oxathiazin-2-ylamino)-3-(2-chloro-3-fluorophenyl)-propan-1-ol], half-maximal inhibition (IC50) was put at 6 nM.

Regarding `CC1(C)OC(N[C@@H](CCO)c2ccccc2F)=NS(=O)(=O)[C@H]1Cc1ccc(C2CCNCC2)cc1` [Example 35, (S)-3-[(S)-6,6-Dimethyl-4,4-dioxo-5-(4-piperidin-4-yl-benzyl)-5,6-dihydro-4H-4lambda6-[1,4,3]oxathiazin-2-ylamino]-3-(2-fluorophenyl)-propan-1-ol], half-maximal inhibition (IC50) required 11 nM.

Regarding `CC1(C)OC(N[C@@H](CCO)c2ccccc2F)=NS(=O)(=O)C1Cc1cccc(-c2ccccc2)c1` (stereo partly drawn) [Example 9, (S)-3-(5-Biphenyl-3-ylmethyl-6,6-dimethyl-4,4-dioxo-5,6-dihydro-4H-4lambda6-[1,4,3]oxathiazin-2-ylamino)-3-(2-fluoro-phenyl)-propan-1-ol], half-maximal inhibition (IC50) required 5 nM.

(Values after patent US8846666B2, “Oxathiazine derivatives which are substituted with benzyl or heteromethylene groups, method for producing them, their use as medicine and drug containing said derivatives and the use thereof” (Sanofi, priority 2011, dated 2014).)
